According to US4097595A, “7-Amino-thiazolyl acetamido cephalosporanic acids” (Roussel Uclaf, priority 1976, dated 1978):
Values after ≈ are worked out from the molar mass of the structure shown. Like-named read-outs stand apart in the source and are kept apart here.

How the values were obtained:
Format in all cases: cell-based
[1] = system: Escherichia Coli UC 1 261; assay: MIC, dilution method in liquid media, Escherichia Coli UC 1 261; settings: read-out: MIC
Method: (§1) A series of tubes were prepared with the same quantity of sterile nutrive media and increasing quantities of the test product was distributed to each tube. Then, each tube was seeded with a bacterial strain and after incubation at 37° C for 24 or 48 hours, the inhibition of the growth was determined by transillumination which permitted determination of the minimum inhibitory concentrations (M.I.C.) in μg/ml.

[2] = system: Klebsiella pneumoniae 52 145; assay: MIC, dilution method in liquid media, Klebsiella pneumoniae 52 145
Method: as §1

[3] = system: Escherichia Coli UC 1 020; assay: MIC, dilution method in liquid media, Escherichia Coli UC 1 020
Method: as §1

[4] = system: Proteus mirabilis (indol); assay: MIC, dilution method in liquid media, Proteus mirabilis (indol); settings: A 235, read-out: MIC
Method: as §1

[5] = system: Escherichia Coli R 55 123 D; assay: MIC, dilution method in liquid media, Escherichia Coli R 55 123 D; settings: COLIR55123D
Method: as §1

[6] = system: Streptococcus pyogenes A 561; assay: MIC, dilution method in liquid media, Streptococcus pyogenes A 561
Method: as §1

[7] = system: Staphylococcus aureus UC 1128 (penicillin resistant); assay: MIC, dilution method in liquid media, Staphylococcus aureus UC 1128, penicillin resistant
Method: as §1

Salmonella Typhimurium = assay: MIC, dilution method in liquid media, Salmonella Typhimurium; settings: Salmonella enterica, strain 420 (Tables II, IV)
Method: as §1

Bacillus subtilis = assay: MIC, dilution method in liquid media, Bacillus subtilis
Method: as §1

[8] = system: Staphylococcus aureus 54 146; assay: MIC, dilution method in liquid media, Staphylococcus aureus 54 146; settings: read-out: MIC
Method: as §1

[9] = system: Streptococcus faecalis 5 432; assay: MIC, dilution method in liquid media, Streptococcus faecalis 5 432
Method: as §1

[10] = system: Staphylococcus aureus UC 1 061 (penicillin sensible); assay: MIC, dilution method in liquid media, Staphylococcus aureus UC 1061, penicillin sensible; settings: penicillin sensible
Method: as §1

[11] = system: Escherichia Coli (T) 0 26 B 6; assay: MIC, dilution method in liquid media, Escherichia Coli (T) 026 B6
Method: as §1

[12] = system: Staphylococcus aureus ATCC 6 538; assay: MIC, dilution method in liquid media, Staphylococcus aureus ATCC 6 538; settings: read-out: MIC
Method: as §1

[13] = system: Bacillus subtilis ATCC 6 633; assay: MIC, dilution method in liquid media, Bacillus subtilis ATCC 6 633
Method: as §1

[14] = Klebsiella pneumoniae, 52145, 48 h, read-out: MIC
[15] = Staphylococcus aureus, 54146, 24 h
[16] = Staphylococcus aureus, 54146, 48 h
[17] = Enterococcus faecalis, 5432, 24 h, read-out: MIC

| SMILES | MIC ([1]; UC1, 24 h) [µg/mL] | MIC ([1]; UC1, 48 h) [µg/mL] | MIC [2, 14] [µg/mL] | MIC ([4]; 24 H) [µg/mL] | MIC ([4]; 48 H) [µg/mL] | MIC ([5]; 48 h, read-out: MIC) [µg/mL] | MIC ([6]; A561, 24 h) [µg/mL] | MIC ([6]; A561, 48 h) [µg/mL] | MIC ([7]; UC1128, 24 H) [µg/mL] | MIC ([7]; UC1128, 48 H) [µg/mL] | MIC (Salmonella Typhimurium; 24 H) [µg/mL] | MIC [8, 15] [µg/mL] | MIC [8, 16] [µg/mL] | MIC [9, 17] [µg/mL] | MIC ([10]; UC1, 24 H) [µg/mL] | MIC ([10]; UC1, 48 H) [µg/mL] | MIC ([11]; 24 h) [µg/mL] | MIC ([11]; 48 h) [µg/mL] | further results |
| --- | --- | --- | --- | --- | --- | --- | --- | --- | --- | --- | --- | --- | --- | --- | --- | --- | --- | --- | --- |
| Nc1nc(CC(=O)NC2C(=O)N3C(C(=O)O)=C(CSC(=O)c4csc(=O)[nH]4)CSC23)cs1 (centres unmarked) [Example 4, 7-[2-(2-amino-4-thiazolyl)-acetamido]-3-[{(2-oxo-(3H)-thiazolin-4-yl)-carbonyl}-thiomethyl]-ceph-3-eme-4-carboxylic acid] | 1 (≈ 1.95 µM) | 1 (≈ 1.95 µM) | 0.2 (≈ 0.389 µM) | 0.6 (≈ 1.17 µM) | 0.6 (≈ 1.17 µM) | 10 (≈ 19.5 µM) | 0.1 (≈ 0.195 µM) | 0.2 (≈ 0.389 µM) | 1 (≈ 1.95 µM) | 1 (≈ 1.95 µM) | 3 (≈ 5.84 µM) | 0.5 (≈ 0.974 µM) | 1 (≈ 1.95 µM) | 10 (≈ 19.5 µM) | 0.2 (≈ 0.389 µM) | 0.5 (≈ 0.974 µM) | 2 (≈ 3.89 µM) | 3 (≈ 5.84 µM) | MIC ([2]; Klebsiella pneumoniae, 52145, 24 h, read-out: MIC): 0.1 µg/mL (≈ 0.195 µM); MIC ([3]; UC1, 24 h): 2 µg/mL (≈ 3.89 µM); MIC ([3]; UC1, 48 h): 2 µg/mL (≈ 3.89 µM); MIC ([5]; 24 h): 5 µg/mL (≈ 9.74 µM); MIC (Salmonella Typhimurium; 48 H): 3 µg/mL (≈ 5.84 µM); MIC (Bacillus subtilis; 24 h, read-out: MIC): 0.1 µg/mL (≈ 0.195 µM); MIC (Bacillus subtilis; 48 h): 0.1 µg/mL (≈ 0.195 µM); MIC ([9]; Enterococcus faecalis, 5432, 48 h): > 40 µg/mL |
| Nc1nc(CC(=O)NC2C(=O)N3C(C(=O)O)=C(CSC(=O)c4ccco4)CS[C@H]23)cs1 (some centres unmarked) [Example 5, 7-[2-(2-amino-4-thiazolyl)-acetamido]-3-[{(2-furyl)-carbonyl}thiomethyl]-ceph-3-eme-4-carboxylic acid] | 2 (≈ 4.16 µM) | 2 (≈ 4.16 µM) | 1 (≈ 2.08 µM) | 2 (≈ 4.16 µM) | 2 (≈ 4.16 µM) | 10 (≈ 20.8 µM) | 0.1 (≈ 0.208 µM) | 0.1 (≈ 0.208 µM) | 1 (≈ 2.08 µM) | 2 (≈ 4.16 µM) | 10 (≈ 20.8 µM) | 1 (≈ 2.08 µM) | 1 (≈ 2.08 µM) | 5 (≈ 10.4 µM) | 0.5 (≈ 1.04 µM) | 1 (≈ 2.08 µM) | 10 (≈ 20.8 µM) | 10 (≈ 20.8 µM) | MIC ([2]; Klebsiella pneumoniae, 52145, 24 h): 0.4 µg/mL (≈ 0.832 µM); MIC ([3]; UC1, 24 h, read-out: MIC): 10 µg/mL (≈ 20.8 µM); MIC ([3]; UC1, 48 h, read-out: MIC): 10 µg/mL (≈ 20.8 µM); MIC ([5]; 24 h, read-out: MIC): 10 µg/mL (≈ 20.8 µM); MIC ([12]; ATCC6, 24 h): 0.5 µg/mL (≈ 1.04 µM); MIC ([12]; ATCC6, 48 h): 1 µg/mL (≈ 2.08 µM); MIC ([13]; ATCC6, 24 h): 0.2 µg/mL (≈ 0.416 µM); MIC ([13]; ATCC6, 48 h): 0.2 µg/mL (≈ 0.416 µM); MIC ([9]; Enterococcus faecalis, 5432, 48 h, read-out: MIC): 40 µg/mL (≈ 83.2 µM) |
